Results as given in PubChem BioAssay (NCI).
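How tested: cells in 96-well plates exposed to compound for 48 hours at five concentrations. Abbreviation: GI50, concentration required for 50% inhibition of growth. Definition used: TGI = concentration required for complete inhibition of growth.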

Key:
Assay in all cases: NCI anticancer screen, dose series, 48 h
[1] = tested on: RXF 393 renal
[2] = tested on: SN12C renal
[3] = tested on: MCF7 breast
[4] = tested on: TK-10 renal
[5] = tested on: CAKI-1 renal
[6] = tested on: MDA-MB-435
[7] = tested on: A498 renal
[8] = tested on: M14 melanoma
[9] = tested on: KM12 colon
[10] = tested on: ACHN renal
[11] = tested on: NCI-H23 lung
[12] = tested on: MOLT-4 leukemia
[13] = tested on: SK-MEL-2 melanoma
[14] = tested on: HL-60(TB) leukemia
[15] = tested on: OVCAR-4 ovarian
[16] = tested on: HOP-92 NSCLC
[17] = tested on: SNB-19 CNS
[18] = tested on: SR leukemia
[19] = tested on: OVCAR-3 ovarian
[20] = tested on: SF-268 CNS
[21] = tested on: LOX IMVI melanoma
[22] = tested on: HCT-15 colon
[23] = tested on: T-47D breast
[24] = tested on: HOP-62 NSCLC
[25] = tested on: SK-MEL-28 melanoma
[26] = tested on: A549 NSCLC
[27] = tested on: HCC-2998 colon
[28] = tested on: HT29 colon
[29] = tested on: IGROV1 ovarian
[30] = tested on: SK-MEL-5 melanoma
[31] = tested on: UACC-62 melanoma
[32] = tested on: PC-3 prostate
[33] = tested on: NCI-H522 lung
[34] = tested on: HCT-116 colon
[35] = tested on: SF-539 CNS
[36] = tested on: 786-0 renal
[37] = tested on: SK-OV-3 ovarian
[38] = tested on: BT-549 breast
[39] = tested on: UACC-257 melanoma
[40] = tested on: UO-31 renal
[41] = tested on: MDA-MB-231 breast
[42] = tested on: SF-295 CNS
[43] = tested on: NCI/ADR-RES ovarian
[44] = tested on: NCI-H460 lung
[45] = tested on: SNB-75 CNS
[46] = tested on: K-562 leukemia
[47] = tested on: COLO 205 colon
[48] = tested on: OVCAR-5 ovarian
[49] = tested on: RPMI-8226 leukemia
[50] = tested on: HS 578T breast
[51] = tested on: SW-620 colon
[52] = tested on: EKVX NSCLC
[53] = tested on: DU-145 prostate
[54] = tested on: MALME-3M melanoma
[55] = tested on: NCI-H226 lung
[56] = tested on: OVCAR-8 ovarian
[57] = tested on: U251 CNS
[58] = tested on: CCRF-CEM leukemia

Structure (SMILES): O=c1[nH]c(-c2ccc(Cl)c(Cl)c2)cn1-c1ccc(Cl)cc1
- GI50 [1]: 32.7 µM
- TGI [1]: 56.4 µM
- GI50 [2]: 26.7 µM
- TGI [2]: > 100 µM
- GI50 [3]: 56.3 µM
- TGI [3]: > 100 µM
- GI50 [4]: 16.5 µM
- TGI [4]: 32.4 µM
- GI50 [5]: 25.4 µM
- TGI [5]: 49 µM
- GI50 [6]: 60 µM
- TGI [6]: > 100 µM
- GI50 [7]: 22.2 µM
- TGI [7]: 47.6 µM
- GI50 [8]: 29.7 µM
- TGI [8]: > 100 µM
- GI50 [9]: 71.3 µM
- TGI [9]: > 100 µM
- GI50 [10]: 32.5 µM
- TGI [10]: > 100 µM
- GI50 [11]: 16.4 µM
- TGI [11]: 37.1 µM
- GI50 [12]: 20.8 µM
- TGI [12]: 38.9 µM
- GI50 [13]: 24.4 µM
- TGI [13]: 64.6 µM
- GI50 [14]: 34.1 µM
- TGI [14]: > 100 µM
- GI50 [15]: 19.7 µM
- TGI [15]: 35.3 µM
- GI50 [16]: 15.9 µM
- TGI [16]: 46.3 µM
- GI50 [17]: 30.1 µM
- TGI [17]: 81.2 µM
- GI50 [18]: 4.64 µM
- TGI [18]: 16.2 µM
- GI50 [19]: 27.7 µM
- TGI [19]: 59 µM
- GI50 [20]: 21.6 µM
- TGI [20]: 59.3 µM
- GI50 [21]: 36.2 µM
- TGI [21]: > 100 µM
- GI50 [22]: > 100 µM
- TGI [22]: > 100 µM
- GI50 [23]: 25.5 µM
- TGI [23]: 84.5 µM
- GI50 [24]: 16.3 µM
- TGI [24]: 31.9 µM
- GI50 [25]: 59.6 µM
- TGI [25]: > 100 µM
- GI50 [26]: 21.3 µM
- TGI [26]: 48 µM
- GI50 [27]: 25.2 µM
- TGI [27]: 87.9 µM
- GI50 [28]: 41.8 µM
- TGI [28]: > 100 µM
- GI50 [29]: 22.6 µM
- TGI [29]: 79.5 µM
- GI50 [30]: 42.2 µM
- TGI [30]: > 100 µM
- GI50 [31]: 26.2 µM
- TGI [31]: 78.3 µM
- GI50 [32]: 66.9 µM
- TGI [32]: > 100 µM
- GI50 [33]: 44.3 µM
- TGI [33]: > 100 µM
- GI50 [34]: 15.8 µM
- TGI [34]: 34 µM
- GI50 [35]: 20.1 µM
- TGI [35]: 54.2 µM
- GI50 [36]: 20.7 µM
- TGI [36]: 43.9 µM
- GI50 [37]: 19.9 µM
- TGI [37]: 41.7 µM
- GI50 [38]: 37.7 µM
- TGI [38]: > 100 µM
- GI50 [39]: > 100 µM
- TGI [39]: > 100 µM
- GI50 [40]: 25.4 µM
- TGI [40]: 60.5 µM
- GI50 [41]: 15.2 µM
- TGI [41]: 46 µM
- GI50 [42]: 25 µM
- TGI [42]: 64 µM
- GI50 [43]: 27.7 µM
- TGI [43]: > 100 µM
- GI50 [44]: 22.3 µM
- TGI [44]: 52.2 µM
- GI50 [45]: 18.6 µM
- TGI [45]: 37.5 µM
- GI50 [46]: 21.5 µM
- TGI [46]: 46.9 µM
- GI50 [47]: 40.3 µM
- TGI [47]: > 100 µM
- GI50 [48]: 30.2 µM
- TGI [48]: > 100 µM
- GI50 [49]: 56.9 µM
- TGI [49]: > 100 µM
- GI50 [50]: 17.2 µM
- TGI [50]: 51.8 µM
- GI50 [51]: 33.1 µM
- TGI [51]: > 100 µM
- GI50 [52]: 35.4 µM
- TGI [52]: > 100 µM
- GI50 [53]: 29.1 µM
- TGI [53]: > 100 µM
- GI50 [54]: 17 µM
- TGI [54]: 39.7 µM
- GI50 [55]: 22.9 µM
- TGI [55]: 54.1 µM
- GI50 [56]: 34.7 µM
- TGI [56]: > 100 µM
- GI50 [57]: 17.4 µM
- TGI [57]: 42.8 µM
- GI50 [58]: 40.3 µM
- TGI [58]: > 100 µM
